These results are taken from patent publication US20100120775A1, “Farnesoid X Receptor Agonists” (SMITHKLINE BEECHAM CORPORATION, priority 2006, published 2010).

Entries after “also recorded” stand apart in the source; their conditions may differ.

The target of test [1] is T1, Human FXRα Ligand Binding Domain (Homo sapiens, UniProt Q96RI1).
T1 construct: polyhistidine (pRSET-A vector) (N); made in house; host or cells: E. coli BL21 (DE3), pRSET-A vector
T1 sequence (Q96RI1 237-472 isoform Q96RI1-2): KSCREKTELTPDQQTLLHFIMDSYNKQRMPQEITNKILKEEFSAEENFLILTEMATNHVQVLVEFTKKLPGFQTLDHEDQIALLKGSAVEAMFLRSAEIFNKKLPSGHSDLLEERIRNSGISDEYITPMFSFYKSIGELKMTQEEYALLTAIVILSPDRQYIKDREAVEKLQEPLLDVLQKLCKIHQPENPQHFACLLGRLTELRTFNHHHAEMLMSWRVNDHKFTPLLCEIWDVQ
Nature of the test: FXR Cofactor Binding Assay (FXR LBD / SRC-1 peptide, time resolved fluorescence). Particulars: FXRα LBD with biotinylated SRC-1 (LCD2, 676-700) peptide, read-out: Activity (pEC50) (converted). The source says: Determination of a ligand mediated cofactor peptide interaction to quantify ligand binding to the nuclear receptor Farnesoid X Receptor (FXR). The method measures the ability of putative ligands to modulate the interaction between the purified bacterial expressed FXRα ligand binding domain (LBD) and a synthetic biotinylated peptide based on residues 676-700 of steroid receptor coactivator-1 (SRC-1) (LXXLL-containing domain-2 where L is the amino acid leucine and X indicates any other amino acid (LCD2), 676-700). The sequence of the SRC-1 peptide used is as published in Iannone, M. A., et al., 2001 Cytometry 44:326-337 where the N-terminus was biotinylated (B) and the C-terminus was amidated. Detection of the associated complex was measured by time resolved fluorescence (TRF). The purified LBD of FXR was labeled with biotin then mixed with stoichiometric amounts of allophycocyanin (APC) labeled streptavidin (Molecular Probes). The biotinylated peptide was then mixed with a ½ stoichiometric amount of europium labeled streptavidin (Wallac Inc). Each was then blocked with a 5 fold excess of biotin and allowed to equilibrate for 15 min. Equimolar amounts of receptor and peptide were mixed together and were allowed to equilibrate for at least 30 min prior to the addition to either a variable or constant concentrations of the sample for which the affinity is to be determined. After equilibration, the time-resolved fluorescent signal was quantitated using a fluorescent plate reader. The affinity of the test compound was estimated from a plot of fluorescence versus concentration of test compound added.
A basal level of FXR: peptide formation is observed in the absence of added ligand. Ligands that promote the complex formation induce a concentration-dependent increase in time-resolved fluorescent signal. Compounds which bind equally well to both monomeric FXR and to the FXR: peptide complex would be expected to give no change in signal, whereas ligands which bind preferentially to the monomeric receptor would be expected to induce a concentration-dependent decrease in the observed signal.
Human FXRα Ligand Binding Domain (FXRα LBD) was expressed in E. coli strain BL21 (DE3) as an amino-terminal polyhistidine tagged fusion protein. Expression was under the control of an isopropyl-13-D-thiogalactopyranoside (IPTG) inducible T7 promoter. DNA encoding this recombinant protein is subcloned into the pRSET-A expression vector (Invitrogen). The coding sequence of Human FXRα LBD was derived from Genbank accession number U 68233 (amino acids 237 to 472).
Routinely, 30-40 g cell paste (equivalent to 2-3 liters of the fermentation batch) was resuspended in 200-250 mL Tris buffered saline (TBS), pH 7.2 (25 mM Tris-hydroxymethylamino methane (Tris), 150 mM sodium chloride). Cells were lysed by passing 3 times through a French Press and cell debris was removed by centrifugation (30 minutes, 20,000×gravity, 4° C.). The cleared supernatant was filtered through course pre-filters, and TBS, pH 7.2, 500 mM imidazole was added to obtain a final imidazole concentration of 50 mM. This lysate was loaded onto a column (6×8 cm) packed with Sepharose [Ni^|| charged]Chelation resin (Pharmacia) and pre-equilibrated with TBS pH 7.2/50 mM imidazole. After washing to baseline absorbance with equilibration buffer, the column was washed with one column volume of TBS pH 7.2 containing 90 mM imidazole. FXRα LBD was eluted directly with 365 mM imidazole. Column fractions were pooled and dialyzed against TBS, pH 7.2, containing 0.5 mM EDTA and 5 mM DTT. The dialyzed protein sample was concentrated using Centri-prep 10 K (Amicon) and subjected to size exclusion, using a column (3×90 cm) packed with Sepharose S-75 resin (Pharmacia) pre-equilibrated with TBS, pH 7.2, containing 0.5 mM ethylene diamine tetraacetic acid (EDTA) and 5 mM dithiothreitol (DTT). […]

Test [2] relates to high-fat diet fed obese mice. Kind of test: Effects of FXR agonists on diet induced obese mice. Type of test: in vivo, C57BL mice. Particulars: 10, 30, 100 mg/kg twice a day orally; for body fat mass: QMR; for NEFA / cholesterol / glycerol / insulin / triglyceride: serum. Here is the method:
Methods: Male 20 to 25 g C57BL mice (Charles River, Indianapolis, Ind.) were housed at 72° F. and 50% relative humidity with a 12 h light and dark cycle and fed with standard rodent chow (Purina 5001, Harlan Teklad, Indianapolis, Ind.) or a high-fat diet (TD93075, Harlan Teklad, Indianapolis, Ind.) for eight weeks. After three weeks, mice on high-fat diet were randomized to vehicle or treatment groups based on fasting glucose and body weight. Starting from the fifth week, mice were given either vehicle or the compound in Example 1 (10, 30, and 100 mg/kg) or the compound in Example 5 (10, 30, 100 mg/kg) twice a day orally. Mice on the standard rodent chow were also given vehicle as a control. Body composition was measured using the quantitative magnetic resonance (QMR) method before and at the end of compound treatment. […] Serum chemistry levels were measured using the Instrumentation Laboratory Ilab600TM clinical chemistry analyzer (Instrumentation Laboratory, Boston, Mass.).

The test system of test [3] is mice on a lithogenic diet. Particulars: cited from earlier work.
For another test, the system named is bile duct-ligated mouse. Particulars: bile duct-ligated mouse model; cited from earlier work.
Another test concerns mice on high-fat diet. As to conditions: cited from earlier work.
The subject of another test is ob/ob mice. Particulars: male ob/ob mice; 30 mg/kg intraperitoneally; cited from earlier work.
A further test concerns db/db mice. As to conditions: cited from earlier work.
In test [4] the test system is hepatic stellate cells (HSC). Particulars: cultured HSCs; cited from earlier work.
Test [5] deals with rodent models of hepatic fibrosis. As to conditions: multiple rodent models; cited from earlier work.
Where [6] appears, read: 100 mg/kg twice a day orally, 100 mg/kg.
[7] abbreviates: db/db mice, oral 30 mg/kg, bid, serum.

As to `CC(C)c1onc(-c2c(Cl)cccc2Cl)c1COc1ccc(-c2ccc3cc(C(=O)O)ncc3c2)cc1` [Example 5, 7-[4-({[3-(2,6-Dichlorophenyl)-5-(1-methylethyl)-4-isoxazolyl]methyl}oxy)phenyl]-3-isoquinolinecarboxylic acid], in test [1], the EC50 was 102 to 1000 nM. Besides, in [2], the serum glucose result was “decreased”, the body fat mass entry was “decreased”, the NEFA result is on record as “decreased” and the cholesterol result was “decreased”. Also, in test [2], the glycerol entry is reported as “decreased”, the insulin entry is recorded as “decreased” and the triglyceride entry was “decreased”.

On to `CC(C)c1onc(-c2c(Cl)cccc2Cl)c1COc1ccc(/C=C/c2cccc(C(=O)O)c2)c(Cl)c1` [GW4064], for which the “formation of cholesterol crystals in the bile” value in [3] was “prevented”. Moreover, in the test on bile duct-ligated mouse, the bacterial overgrowth result is recorded as “decreased”, the mucosal barrier result is “improved” and the “translocation of bacteria to mesenteric lymph nodes” value is “decreased”. In addition, in the test on mice on high-fat diet (setting [6]), the “body weight / high-fat diet induced body weight gain” value is reported as “decrease; also recorded: reduced”, the serum glucose entry is “decreased”, the serum insulin entry is “decreased” and the serum triglyceride result was “decreased”. Besides, the glucose tolerance result in the test with mice on high-fat diet (100 mg/kg twice a day orally, GTT, 100 mg/kg) is on record as “corrected; also recorded: improve”. The liver triglyceride content result in the test on mice on high-fat diet (100 mg/kg twice a day orally) is listed as “reduced”. In addition, the body fat mass entry with mice on high-fat diet is listed as “decrease”. In addition, the total cholesterol entry in the test on mice on high-fat diet (serum) is on record as “decrease”. In addition, in the test on ob/ob mice, the body weight entry was “did not alter”, the fasting blood glucose result is recorded as “no effect”, the food intake entry is reported as “did not alter” and the glucose tolerance entry was “improved”. For the same compound, in the test on ob/ob mice, the insulin concentration result is on record as “decreased” and the insulin sensitivity entry is on record as “enhanced”. In addition, in the test on db/db mice (db/db mice), the “glycogen storage in the liver” value is given as “enhanced” and the “insulin signalling in the liver” value is “enhanced”. Also, in the test with db/db mice (db/db mice, oral 30 mg/kg, bid), the blood glucose result was “decreased” and the “serum β-hydroxybutyrate” value was “decreased”. Besides, in the test with db/db mice (setting [7]), the NEFA result is “decreased”, the total cholesterol entry is given as “decreased” and the triglyceride result is “decreased”. Also, in the test with db/db mice (diabetic db/db mice), the hyperglycemia result is on record as “significantly improved” and the hyperlipidemia entry is listed as “significantly improved”.

Regarding `CC[C@H]1[C@@H](O)[C@@H]2[C@H](CC[C@]3(C)[C@@H]([C@H](C)CCC(=O)O)CC[C@@H]23)[C@@]2(C)CC[C@@H](O)C[C@@H]12` [Example 6EtCDCA, 6-ethyl-chenodeoxycholic acid], in test [4], the “expression of α1(I)collagen” value is “decreased” and the “expression of α-smooth muscle actin” value is “decreased”. The hepatic fibrosis entry in test [5] is “prevent development and promote resolution”.

For `CC(C)c1onc(-c2c(Cl)cccc2Cl)c1COc1ccc(-c2ccc3nc(C(=O)O)ccc3c2)cc1` [Example 1, 6-[4-({[3-(2,6-Dichlorophenyl)-5-(1-methylethyl)-4-isoxazolyl]methyl}oxy)phenyl]-2-quinolinecarboxylic Acid], in test [2], the serum glucose entry is on record as “decreased”, the body fat mass entry is listed as “decreased”, the NEFA entry is given as “decreased” and the cholesterol result is “decreased”. In addition, in [2], the glycerol entry was “decreased”, the insulin result is “decreased” and the triglyceride entry was “decreased”.
